Results on two substances are retold here after publication PMC9797021 (ACS applied bio materials, 2022).

One test has as its system SARS-CoV-2 RBD. To be noted: cited from earlier work.
The test system of test [1] is SARS-CoV-2 spike protein, S1 subunit. It is filed as binding. To be noted: pH 7.4.

With “residues 21–43 of the human ACE2 α 1-helix”, the “affinity compared with full-length ACE2 binding to RBD” value in the test on SARS-CoV-2 RBD is “comparable to that of the full-length ACE2 binding to RBD”.
ACE2: the “SPR angle shift of ACE2/spike protein binding” value in test [1] is 0.147±0.009 degrees.
